Data: patent US20250206730A1 (AUTOTELIC BIO INC., priority 2022, published 2025)

Experiments:
[1] = biological target: T1, ALK5 kinase (Homo sapiens, UniProt P36897); test: LanthaScreen Eu Kinase Binding Assay; conditions: Kinase Tracer 178, Eu-anti-GST Antibody, read-out: IC50 Enzyme
T1 sequence (P36897 34-503): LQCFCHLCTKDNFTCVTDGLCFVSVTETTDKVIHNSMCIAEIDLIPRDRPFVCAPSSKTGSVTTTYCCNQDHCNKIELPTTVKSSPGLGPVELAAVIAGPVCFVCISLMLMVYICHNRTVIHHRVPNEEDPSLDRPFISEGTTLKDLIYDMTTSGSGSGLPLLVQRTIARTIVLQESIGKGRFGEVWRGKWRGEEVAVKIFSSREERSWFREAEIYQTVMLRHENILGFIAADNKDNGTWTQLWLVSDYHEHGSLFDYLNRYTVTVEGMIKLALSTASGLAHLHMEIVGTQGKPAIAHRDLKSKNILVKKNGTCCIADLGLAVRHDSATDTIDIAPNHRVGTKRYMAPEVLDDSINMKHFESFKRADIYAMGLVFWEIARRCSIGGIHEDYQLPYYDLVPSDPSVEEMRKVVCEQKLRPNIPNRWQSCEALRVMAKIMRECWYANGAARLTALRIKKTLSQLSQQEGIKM
Protocol: [Example 1] LanthaScreen Eu Kinase Binding Assay
4 μL of 4× Test Compound in 4% DMSO and 4 μL of 4× Kinase in Kinase buffer were added to wells (low volume, white 384-well plate (Greiner Cat. #784207)). The plate was shaken for 30 seconds, centrifuged for 10 seconds at 1000 rpm, and incubated at RT for 30 minutes. Then, 4 μL of 4× Eu-anti-GST Antibody and 4 μL of 4× Kinase Tracer 178 were added to the wells. The plate was shaken for 30 seconds, centrifuged for 10 seconds at 1000 rpm, and incubated at RT for 60 minutes. Fluorescence was measured by a plate reader, Biotek Synergy H1 (Vermont, USA) under the following conditions. • Excitation: 340 nm (3 nm bandpass) • Kinase tracer emission: 665 nm (10 nm bandpass) • Eu Ab emission: 615 nm (10 nm bandpass) • Emission ratio=665 nm (tracer)/615 nm (Eu Ab) • The higher the binding affinity of compound to ALK5 kinase is, the less the emission ratio is.

[2] = test system: TGF-β signaling; test: Assay for evaluating cellular inhibition of TGF-β signaling, 4T1 (SBE-luc2P) luciferase reporter; format: cell-based; conditions: Mus musculus, 4T1, 4T1 (SBE-luc2P) transient pool, 0.2% FBS, 2 h pre-treatment, TGF-β1 2 ng/mL 24 h; read-out: IC50 4T1 Cell
Procedure, shortened: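 4T1 cells transiently carrying SBE-luc2P (6×10^3/well, 0.2% FBS, ~60% confluence) or HEK293 SBE-reporter stable cells (2.5×10^4/well, 0.5% FBS, ~80% confluence) pre-treated with compound for 2 h. TGF-β1 (2 ng/mL) then added for 24 h at 37 °C; luciferase luminescence read from lysates.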

| SMILES | IC50 [1] [nM] | IC50 [2] [nM] |
| --- | --- | --- |
| CC(C)(O)c1cccc(Nc2cc(Oc3sc(NC4CC4)nc3-c3ccccc3)ccn2)c1 [A-44, 2-(3-((4-((2-(Cyclopropylamino)-4-phenylthiazol-5-yl)oxy)pyridin-2-yl)amino)phenyl)propan-2-ol] | < 100 | > 100 |
| NS(=O)(=O)c1cccc(Nc2cc(Oc3sc(NC4CC4)nc3-c3ccccc3)ccn2)c1 [A-45, 3-((4-((2-(Cyclopropylamino)-4-phenylthiazol-5-yl)oxy)pyridin-2-yl)amino)benzenesulfonamide] | < 100 | > 100 |
| NC(=O)c1ccc(Nc2cc(Oc3sc(NC4CC4)nc3-c3ccccc3)ccn2)cc1 [A-47, 4-((4-((2-(Cyclopropylamino)-4-phenylthiazol-5-yl)oxy)pyridin-2-yl)amino)benzamide] | > 100 | > 100 |
| O=C(O)c1cccc(Nc2cc(Oc3sc(NC4CC4)nc3-c3ccccc3)ccn2)c1 [A-48, 3-((4-((2-(Cyclopropylamino)-4-phenylthiazol-5-yl)oxy)pyridin-2-yl)amino)benzoic acid] | < 100 | > 100 |
| O=C(O)c1ccc(Nc2cc(Oc3sc(NC4CC4)nc3-c3ccccc3)ccn2)cc1 [A-49, 4-((4-((2-(Cyclopropylamino)-4-phenylthiazol-5-yl)oxy)pyridin-2-yl)amino)benzoic acid] | < 100 | > 100 |
| CNc1nc(-c2ccccc2)c(Oc2ccnc(Nc3cccc(C(C)(C)O)c3)c2)s1 [A-50, 2-(3-((4-((2-(Methylamino)-4-phenylthiazol-5-yl)oxy)pyridin-2-yl)amino)phenyl)propan-2-ol] | < 100 | > 100 |
| CNc1nc(-c2ccccc2)c(Oc2ccnc(Nc3cccc(S(N)(=O)=O)c3)c2)s1 [A-51, 3-((4-((2-(Methylamino)-4-phenylthiazol-5-yl)oxy)pyridin-2-yl)amino)benzenesulfonamide] | < 100 | < 100 |
| CNc1nc(-c2ccccc2)c(Oc2ccnc(Nc3cccc(C(N)=O)c3)c2)s1 [A-52, 3-((4-((2-(Methylamino)-4-phenylthiazol-5-yl)oxy)pyridin-2-yl)amino)benzamide] | < 100 | > 100 |
| CNc1nc(-c2ccccc2)c(Oc2ccnc(Nc3ccc(C(=O)O)cc3)c2)s1 [A-56, 4-((4-((2-(Methylamino)-4-phenylthiazol-5-yl)oxy)pyridin-2-yl)amino)benzoic acid] | < 100 | > 100 |
| CNc1nc(-c2ccccc2)c(Oc2ccnc(Nc3cccc(C(=O)O)c3)c2)s1 [A-57, 3-((4-((2-(Methylamino)-4-phenylthiazol-5-yl)oxy)pyridin-2-yl)amino)benzoic acid] | < 100 | > 100 |
| Cc1nc(-c2ccccc2)c(Oc2ccnc(Nc3cccc(S(N)(=O)=O)c3)c2)s1 [A-58, 3-((4-((2-Methyl-4-phenylthiazol-5-yl)oxy)pyridin-2-yl)amino)benzenesulfonamide] | < 100 | < 100 |
| Cc1nc(-c2ccccc2)c(Oc2ccnc(Nc3ccnc(C(C)(C)O)c3)c2)s1 [A-59, 2-(4-((4-((2-Methyl-4-phenylthiazol-5-yl)oxy)pyridin-2-yl)amino)pyridin-2-yl)propan-2-ol] | < 100 | > 100 |
| Cc1nc(-c2ccccc2)c(Oc2ccnc(Nc3cccc(C(N)=O)c3)c2)s1 [A-60, 3-((4-((2-Methyl-4-phenylthiazol-5-yl)oxy)pyridin-2-yl)amino)benzamide] | < 100 | < 100 |
| Cc1nc(-c2ccccc2)c(Oc2ccnc(Nc3cccc(C(C)(C)O)c3)c2)s1 [A-61, 2-(3-((4-((2-Methyl-4-phenylthiazol-5-yl)oxy)pyridin-2-yl)amino)phenyl)propan-2-ol] | < 100 | < 100 |
| Cc1nc(-c2ccccc2)c(Oc2ccnc(Nc3ccc(C(N)=O)cc3)c2)s1 [A-63] | < 100 | > 100 |
| Cc1nc(-c2ccccc2)c(Oc2ccnc(Nc3ccc(S(N)(=O)=O)cc3)c2)s1 [A-64, 4-((4-((2-Methyl-4-phenylthiazol-5-yl)oxy)pyridin-2-yl)amino)benzenesulfonamide] | < 100 | > 100 |

| SMILES | IC50 [1] [nM] | IC50 [2] [nM] |
| --- | --- | --- |
| Cc1nc(-c2ccccc2)c(Oc2ccnc(Nc3ccc(C(C)(C)O)nc3)c2)s1 [A-65, 2-(5-((4-((2-Methyl-4-phenylthiazol-5-yl)oxy)pyridin-2-yl)amino)pyridin-2-yl)propan-2-ol] | < 100 | > 100 |
| Cc1nc(-c2ccccc2)c(Oc2ccnc(Nc3cccc(C(C)(C)C(=O)O)c3)c2)s1 [A-66, 2-Methyl-2-(3-((4-((2-methyl-4-phenylthiazol-5-yl)oxy)pyridin-2-yl)amino)phenyl)propanoic acid] | < 100 | < 100 |
| Cc1nc(-c2ccccc2)c(Oc2ccnc(Nc3cccc(S(=O)(=O)O)c3)c2)s1 [A-68, 3-((4-((2-Methyl-4-phenylthiazol-5-yl)oxy)pyridin-2-yl)amino)benzenesulfonic acid] | < 100 | > 100 |
| CNC(=O)c1cccc(Nc2cc(Oc3sc(C)nc3-c3ccccc3)ccn2)c1 [A-69, N-Methyl-3-((4-((2-methyl-4-phenylthiazol-5-yl)oxy)pyridin-2-yl)amino)benzamide] | < 100 | < 100 |
| Cc1nc(-c2ccccc2)c(Oc2ccnc(Nc3cccc(S(C)(=O)=O)c3)c2)s1 [A-70, 4-((2-Methyl-4-phenylthiazol-5-yl)oxy)-N-(3-(methylsulfonyl)phenyl)pyridin-2-amine] | < 100 | < 100 |
| Cc1nc(-c2ccccc2)c(Oc2ccnc(Nc3cccc(NS(C)(=O)=O)c3)c2)s1 [A-71, N-(3-((4-((2-Methyl-4-phenylthiazol-5-yl)oxy)pyridin-2-yl)amino)phenyl)methanesulfonamide] | < 100 | < 100 |
| Cc1nc(-c2ccccc2)c(Oc2ccnc(Nc3cccc(S(=O)(=O)C(F)(F)F)c3)c2)s1 [A-72, 4-((2-Methyl-4-phenylthiazol-5-yl)oxy)-N-(3-((trifluoromethyl)sulfonyl)phenyl)pyridin-2-amine] | > 100 | > 100 |
| Cc1nc(-c2ccccc2)c(Oc2ccnc(Nc3ccc(C(N)=O)nc3)c2)s1 [A-91, 5-((4-((2-Methyl-4-phenylthiazol-5-yl)oxy)pyridin-2-yl)amino)picolinamide] | < 100 | > 100 |
| Cc1nc(-c2ccccc2)c(Oc2ccnc(Nc3cncc(C(N)=O)c3)c2)s1 [A-92, 5-((4-((2-Methyl-4-phenylthiazol-5-yl)oxy)pyridin-2-yl)amino)nicotinamide] | < 100 | < 100 |
| Cc1nc(-c2ccccc2)c(Oc2ccnc(Nc3cc(C(N)=O)ccn3)c2)s1 [A-93, 2-((4-((2-Methyl-4-phenylthiazol-5-yl)oxy)pyridin-2-yl)amino)isonicotinamide] | < 100 | < 100 |
| Cc1nc(-c2ccccc2)c(Oc2ccnc(Nc3ccc(N4CCNCC4)cc3)c2)s1 [A-104, 4-((2-Methyl-4-phenylthiazol-5-yl)oxy)-N-(4-(piperazin-1-yl)phenyl)pyridin-2-amine] | < 100 | < 100 |
| Cc1nc(-c2ccccc2)c(Oc2ccnc(Nc3ccc(OCCN4CCCCC4)cc3)c2)s1 [A-105, 4-((2-Methyl-4-phenylthiazol-5-yl)oxy)-N-(4-(2-(piperidin-1-yl)ethoxy)phenyl)pyridin-2-amine] | < 100 | < 100 |
| Cc1nc(-c2ccccc2)c(Oc2ccnc(Nc3cccc(NS(=O)(=O)C(F)(F)F)c3)c2)s1 [A-107, 1,1,1-Trifluoro-N-(3-((4-((2-methyl-4-phenylthiazol-5-yl)oxy)pyridin-2-yl)amino)phenyl)methanesulfonamide] | < 100 | < 100 |
| Cc1nc(-c2ccccc2)c(Oc2ccnc(Nc3cccc(C(=O)O)c3)c2)s1 [A-109, 3-((4-((2-Methyl-4-phenylthiazol-5-yl)oxy)pyridin-2-yl)amino)benzoic acid] | < 100 | > 100 |
| Cc1nc(-c2ccccc2)c(Oc2ccnc(Nc3ccc(C(=O)O)cc3)c2)s1 [A-110, 4-((4-((2-Methyl-4-phenylthiazol-5-yl)oxy)pyridin-2-yl)amino)benzoic acid] | < 100 | > 100 |
| Cc1nc(-c2ccccc2)c(Oc2ccnc(Nc3cccc(CC#N)c3)c2)s1 [A-111, 2-(3-((4-((2-Methyl-4-phenylthiazol-5-yl)oxy)pyridin-2-yl)amino)phenyl)acetonitrile] | < 100 | < 100 |
